# Results: patent publication US20120059036A1, “METHOD FOR REDUCING THROMBOCYTOPENIA AND THROMBOCYTOPENIA-ASSOCIATED MORTALITY” (priority 2008, published 2012)
# Legend:
# [1] = system: patients experiencing ST-segment elevation myocardial infarction (STEMI); test: […] Phase III study: clinical outcomes (death, reinfarction, revascularization, stent thrombosis) at 30 days and 8 months; format: in vivo, human; conditions: for probability of death/MI: within eight months after treatment, intent-to-treat population
# Method: (§1) The inclusion criteria were (1) chest pain for longer than 30 minutes with an electrocardiographic ST-segment elevation of 1 mm or greater in two or more contiguous electrocardiogram leads, or with a new left bundle-branch block, and (2) admission either within 12 hours of symptom onset or between 12 and 24 hours after onset with evidence of continuing ischemia. The exclusion criteria included administration of fibrinolytics in the previous 30 days, major surgery within 15 days, and active bleeding or previous stroke in the last six months. Immediately after eligibility criteria were met and before the visualization of coronary arteries through angiography, the treating physician at each investigational site performed open-label assignments of study treatments via sealed envelopes.
# (§2) This type of regimen is described in U.S. Pat. No. 6,770,660. Abciximab was administered in a 0.25 mg/kg bolus, followed by 0.125 μg/kg/min continuous infusion for 12 hours. The administration of both drugs began at first medical contact, before arterial sheath insertion. Heparin was given at 40 to 70 U/kg, targeting an activated clotting time of at least 200 seconds. Patients received aspirin (160-325 mg orally or 250 mg intravenously, followed by 80-125 mg/d orally indefinitely) and clopidogrel (300 mg orally and then 75 mg/d for at least three months).
# (§3) A 12-lead electrocardiogram was recorded before the procedure and 90 minutes after the last balloon inflation in the infarct-related artery. Follow-up visits were scheduled at one, four, and eight months.
# (§4) The data for all patients with primary end-point events were reviewed by an independent adjudication committee whose members were blinded to treatment assignments. Events adjudication was performed separately by two members, and in case of disagreement, the opinion of the third member was obtained and the final decision taken by consensus. The committee was also responsible for the adjudication of all clinical events according to the Academic Research Consortium.^18
# (§5) Discrete data were summarized as frequencies, and comparisons were made with the likelihood-ratio χ^2 test or Fisher exact test. Continuous data were expressed as mean (SD) or median and interquartile range according to their distribution; comparisons were made with a one-way analysis of variance or the Kruskal-Wallis test.
# [2] = system: patients experiencing ST-segment elevation myocardial infarction (STEMI); test: […] primary end point: at least 50% resolution of ST-segment elevation on 12-lead electrocardiogram 90 minutes after PCI; format: in vivo, human; conditions: for percentage of patients achieving at least 50% ST-segment resolution / patients achieving at least 50% ST-segment resolution: intention-to-treat analysis, within 90 minutes following PCI; for patients achieving at least 50% ST-segment resolution: out of 361 patients
# Method: as §1, §2, §3
# Changes in the ST-segment of the electrocardiogram were evaluated cumulatively before and 90 minutes after intervention. ST-segment elevation was measured to the nearest 0.5 mm at 60 milliseconds after the J point by a single experienced cardiologist who was blinded to treatment assignments. […] Quantitative angiographic analyses were performed with a validated edge-detection system (CAAS II; Pie Medical, Maastricht, the Netherlands), and coronary flow was classified according to Thrombolysis in Myocardial Infarction (TIMI) criteria. Angiographic analyses and TIMI grading were performed by one independent cardiologist who was blinded to treatment assignments.
# This was based on both intention-to-treat and per-protocol principles and was applied to an exploratory analysis across several prespecified subgroups. The Cochran-Mantel-Haenszel χ^2 test was performed to evaluate possible imbalances of the relative risk among different recruiting centers.
# [3] = system: patients experiencing ST-segment elevation myocardial infarction (STEMI); test: MULTISTRATEGY safety analysis: bleeding, transfusion, thrombocytopenia and thrombocytopenia-associated mortality; conditions: for Major bleeding / Minor bleedng / Moderate thrombocytoperia (<100000 cells/mm^3) / Red blood cells transfusion ≧1 Units / Red blood cells transfusion ≧2 Units / Severe thrombocytoperia (<50000 cells/mm^3): At 30 d, safety analysis
# Method: as §1, §2, §4, §5
# [4] = At 8 mo, number of patients with event
# [5] = At 30 d, number of patients with event
compound,measurement,setting,value
"CCCCS(=O)(=O)N[C@@H](Cc1ccc(OCCCCC2CCNCC2)cc1)C(=O)O.Cl [Tirofiban, N-(butylsulfonyl)-O-[4-(4-piperidinyl)butyl]-tyrosine monohydrochloride]",Clinically driven target-vessel revascularization,"[1]; At 8 mo, Kaplan-Meier estimate",(6.2) %
same,"Composite of death, reinfarction, or target-vessel revascularization","[1]; At 8 mo, Kaplan-Meier estimate",(9.9) %
same,Death,"[1]; At 8 mo, Kaplan-Meier estimate",(3.0) %
same,Death or reinfarction,"[1]; At 8 mo, Kaplan-Meier estimate",(5.9) %
same,Definite or probable or possible stent thrombosis,"[1]; At 8 mo, Kaplan-Meier estimate",(3.8) %
same,Definite or probable stent thrombosis,"[1]; At 8 mo, Kaplan-Meier estimate",(3.2) %
same,Definite stent thrombosis,"[1]; At 8 mo, Kaplan-Meier estimate",(2.7) %
same,Possible stent thrombosis,"[1]; At 8 mo, Kaplan-Meier estimate",(0.8) %
same,Reinfarction,"[1]; At 8 mo, Kaplan-Meier estimate",(4.3) %
same,Clinically driven target-vessel revascularization,[1]; [4],23 No.
same,"Composite of death, reinfarction, or target-vessel revascularization",[1]; [4],37 No.
same,Death,[1]; [4],11 No.
same,Death or reinfarction,[1]; [4],22 No.
same,Definite or probable or possible stent thrombosis,[1]; [4],14 No.
same,Definite or probable stent thrombosis,[1]; [4],12 No.
same,Definite stent thrombosis,[1]; [4],10 No.
same,Possible stent thrombosis,[1]; [4],3 No.
same,Reinfarction,[1]; [4],16 No.
same,Clinically driven target-vessel revascularization,"[1]; At 30 d, Kaplan-Meier estimate",(2.2) %
same,"Composite of death, reinfarction, or target-vessel revascularization","[1]; At 30 d, Kaplan-Meier estimate",(4.0) %
same,Death,"[1]; At 30 d, Kaplan-Meier estimate",(1.1) %
same,Death or reinfarction,"[1]; At 30 d, Kaplan-Meier estimate",(3.8) %
same,Definite or probable stent thrombosis,"[1]; At 30 d, Kaplan-Meier estimate",(2.4) %
same,Definite stent thrombosis,"[1]; At 30 d, Kaplan-Meier estimate",(1.9) %
same,Probable stent thrombosis,"[1]; At 30 d, Kaplan-Meier estimate",(0.5) %
same,Reinfarction,"[1]; At 30 d, Kaplan-Meier estimate",(2.7) %
same,Clinically driven target-vessel revascularization,[1]; [5],8 No.
same,"Composite of death, reinfarction, or target-vessel revascularization",[1]; [5],15 No.
same,Death,[1]; [5],4 No.
same,Death or reinfarction,[1]; [5],14 No.
same,Definite or probable stent thrombosis,[1]; [5],9 No.
same,Definite stent thrombosis,[1]; [5],7 No.
same,Probable stent thrombosis,[1]; [5],2 No.
same,Reinfarction,[1]; [5],10 No.
same,incidence of MACE,[1]; At 30 days,4.0%
same,incidence of MACE,[1]; At eight months,9.9%
same,probability of death/MI,[1],5.9%
same,recovery from ST-segment elevation after coronary intervention in comparison with abciximab,[2]; consistent across recruiting centers and prespecified subgroups,noninferior
same,percentage of patients achieving at least 50% ST-segment resolution,[2],85.3%
same,patients achieving at least 50% ST-segment resolution,[2],308 patients
CCCCS(=O)(=O)N[C@@H](Cc1ccc(OCCCCC2CCNCC2)cc1)C(=O)O.Cl.O [Tirofiban Plus Uncoated Stent],Clinically driven target-vessel revascularization,"[1]; At 8 mo, Kaplan-Meier estimate",(9.1) %
same,"Composite of death, reinfarction, or target-vessel revascularization","[1]; At 8 mo, Kaplan-Meier estimate",(12.9) %
same,Death,"[1]; At 8 mo, Kaplan-Meier estimate",(3.8) %
same,Death or reinfarction,"[1]; At 8 mo, Kaplan-Meier estimate",(6.5) %
same,Definite or probable or possible stent thrombosis,"[1]; At 8 mo, Kaplan-Meier estimate",(4.3) %
same,Definite or probable stent thrombosis,"[1]; At 8 mo, Kaplan-Meier estimate",(3.2) %
same,Definite stent thrombosis,"[1]; At 8 mo, Kaplan-Meier estimate",(2.2) %
same,Possible stent thrombosis,"[1]; At 8 mo, Kaplan-Meier estimate",(1.6) %
same,Reinfarction,"[1]; At 8 mo, Kaplan-Meier estimate",(4.3) %
same,Clinically driven target-vessel revascularization,[1]; [4],17 No.
same,"Composite of death, reinfarction, or target-vessel revascularization",[1]; [4],24 No.
same,Death,[1]; [4],7 No.
same,Death or reinfarction,[1]; [4],12 No.
same,Definite or probable or possible stent thrombosis,[1]; [4],8 No.
same,Definite or probable stent thrombosis,[1]; [4],6 No.
same,Definite stent thrombosis,[1]; [4],4 No.
same,Possible stent thrombosis,[1]; [4],3 No.
same,Reinfarction,[1]; [4],8 No.
same,Clinically driven target-vessel revascularization,"[1]; At 30 d, Kaplan-Meier estimate",(1.6) %
same,"Composite of death, reinfarction, or target-vessel revascularization","[1]; At 30 d, Kaplan-Meier estimate",(3.8) %
same,Death,"[1]; At 30 d, Kaplan-Meier estimate",(1.1) %
same,Death or reinfarction,"[1]; At 30 d, Kaplan-Meier estimate",(3.8) %
same,Definite or probable stent thrombosis,"[1]; At 30 d, Kaplan-Meier estimate",(2.7) %
same,Definite stent thrombosis,"[1]; At 30 d, Kaplan-Meier estimate",(1.6) %
same,Probable stent thrombosis,"[1]; At 30 d, Kaplan-Meier estimate",(1.1) %
same,Reinfarction,"[1]; At 30 d, Kaplan-Meier estimate",(2.7) %
same,Clinically driven target-vessel revascularization,[1]; [5],3 No.
same,"Composite of death, reinfarction, or target-vessel revascularization",[1]; [5],7 No.
same,Death,[1]; [5],2 No.
same,Death or reinfarction,[1]; [5],7 No.
same,Definite or probable stent thrombosis,[1]; [5],5 No.
same,Definite stent thrombosis,[1]; [5],3 No.
same,Probable stent thrombosis,[1]; [5],2 No.
same,Reinfarction,[1]; [5],5 No.
Abciximab: inhibitor of the glycoprotein (GP) IIb/IIIa receptor complex; comparator drug,Clinically driven target-vessel revascularization,"[1]; At 8 mo, Kaplan-Meier estimate",(7.3) %
same,"Composite of death, reinfarction, or target-vessel revascularization","[1]; At 8 mo, Kaplan-Meier estimate",(12.4) %
same,Death,"[1]; At 8 mo, Kaplan-Meier estimate",(4.0) %
same,Death or reinfarction,"[1]; At 8 mo, Kaplan-Meier estimate",(7.5) %
same,Definite or probable or possible stent thrombosis,"[1]; At 8 mo, Kaplan-Meier estimate",(4.3) %
same,Definite or probable stent thrombosis,"[1]; At 8 mo, Kaplan-Meier estimate",(3.5) %
same,Definite stent thrombosis,"[1]; At 8 mo, Kaplan-Meier estimate",(2.7) %
same,Possible stent thrombosis,"[1]; At 8 mo, Kaplan-Meier estimate",(1.1) %
same,Reinfarction,"[1]; At 8 mo, Kaplan-Meier estimate",(3.5) %
same,Clinically driven target-vessel revascularization,[1]; [4],27 No.
same,"Composite of death, reinfarction, or target-vessel revascularization",[1]; [4],46 No.
same,Death,[1]; [4],15 No.
same,Death or reinfarction,[1]; [4],28 No.
same,Definite or probable or possible stent thrombosis,[1]; [4],16 No.
same,Definite or probable stent thrombosis,[1]; [4],13 No.
same,Definite stent thrombosis,[1]; [4],10 No.
same,Possible stent thrombosis,[1]; [4],4 No.
same,Reinfarction,[1]; [4],13 No.
same,Clinically driven target-vessel revascularization,"[1]; At 30 d, Kaplan-Meier estimate",(1.6) %
same,"Composite of death, reinfarction, or target-vessel revascularization","[1]; At 30 d, Kaplan-Meier estimate",(4.3) %
same,Death,"[1]; At 30 d, Kaplan-Meier estimate",(2.4) %
same,Death or reinfarction,"[1]; At 30 d, Kaplan-Meier estimate",(3.8) %
same,Definite or probable stent thrombosis,"[1]; At 30 d, Kaplan-Meier estimate",(2.2) %
same,Definite stent thrombosis,"[1]; At 30 d, Kaplan-Meier estimate",(1.3) %
same,Probable stent thrombosis,"[1]; At 30 d, Kaplan-Meier estimate",(0.8) %
same,Reinfarction,"[1]; At 30 d, Kaplan-Meier estimate",(1.3) %
same,Clinically driven target-vessel revascularization,[1]; [5],6 No.
same,"Composite of death, reinfarction, or target-vessel revascularization",[1]; [5],16 No.
same,Death,[1]; [5],9 No.
same,Death or reinfarction,[1]; [5],14 No.
same,Definite or probable stent thrombosis,[1]; [5],8 No.
same,Definite stent thrombosis,[1]; [5],5 No.
same,Probable stent thrombosis,[1]; [5],3 No.
same,Reinfarction,[1]; [5],5 No.
same,incidence of MACE,[1]; At 30 days,4.37%
same,incidence of MACE,[1]; At eight months,12.4%
same,probability of death/MI,[1],7.5%
same,Major bleeding,[3],(1.6) %
same,Minor bleedng,[3],(6.2) %
same,Moderate thrombocytoperia (<100000 cells/mm^3),[3],(1.6) %
same,Red blood cells transfusion ≧1 Units,[3],(2.2) %
same,Red blood cells transfusion ≧2 Units,[3],(2.2) %
same,Severe thrombocytoperia (<50000 cells/mm^3),[3],(2.4) %
same,Major bleeding,[3]; number of patients,6 No.
same,Minor bleedng,[3]; number of patients,23 No.
same,Moderate thrombocytoperia (<100000 cells/mm^3),[3]; number of patients,6 No.
same,Red blood cells transfusion ≧1 Units,[3]; number of patients,8 No.
same,Red blood cells transfusion ≧2 Units,[3]; number of patients,8 No.
same,Severe thrombocytoperia (<50000 cells/mm^3),[3]; number of patients,9 No.
same,TIMI major and minor bleeding,[3]; At 30 days,7.8%
same,incidence of severe or moderate thrombocytopenia,[3]; At 30 days,4.0%
same,mortality rates of nonthrombocytopenic patients,"[3]; HDB tirofiban compared with abciximab, follow-up, FIG. 3",virtually identical
same,patients with drug-induced thrombocytopenia who died,"[3]; within eight months, FIG. 3",20%
same,percentage of patients achieving at least 50% ST-segment resolution,[2],83.6%
same,patients achieving at least 50% ST-segment resolution,[2],302 patients
